The source of these data is patent US10947229B2, “Dimethyl amino azetidine amides as JAK inhibitors” (THERAVANCE BIOPHARMA R&D IP, LLC, priority 2018, dated 2021).

A short description of one data set: Lung S9 metabolism. The class given is in vitro ADME, human. The conditions noted are these: for Compound Remaining at 60 min (%) / microsomal CLint at 1 µM: human lung S9, 1 μM compound, 1 mg/mL S9 protein; for Sulfate Appearance: human lung S9, qualitative O-sulfate metabolite peak; for microsomal CLint at 1 µM: human lung S9 fraction, pH 7.4, NADPH and PAPS, read-out: Clearance. How it is done: The time 0, 15, 30, and 60 minute samples were analyzed for parent compound by high resolution LC-MS/MS. Lung S9 fractions from human (lot 1410245) were purchased from XenoTech LLC (Lenexa, Kans.). NADPH (Sigma Aldrich, N1630) and 3-phosphoadenosine 5-phosphosulfate (PAPS) (Sigma Aldrich, A1651) were purchased from Sigma Aldrich (St. Louis, Mo.). Acetonitrile and water were obtained from VWR (Radnor, Pa.) and were of HPLC grade or better. Raloxifene and formic acid was purchased from Sigma Aldrich (St. Louis, Mo.). Lung S9 incubations were performed in a water bath at 37° C. in a 96-well polypropylene plate. […] Louis, Mo.), 3 mM magnesium chloride (Sigma Aldrich, M1028) and in the presence of 100 μM PAPS (Sigma-Aldrich, St. […] Incubation volumes consisted of 400 μL and time points were taken at 0, 15, 30, and 60 minutes by the removal of a 70 μL aliquot and dilution into 140 μL acetonitrile (0% formic acid). All samples were centrifuged at 2250 g for 10 minutes at 5° C. Supernatant […] was taken from the centrifuged samples and diluted into 100 μL HPLC water containing internal standard. The samples were run on a Dionex Ultimate 3000 Auto sampler and analyzed using a Thermo Q-Exactive High Resolution Mass Spectrometer (Thermo, Waltham, Mass.) in Full Scan mode in conjunction with an Atlantis T3 column 3 μM-2.1×50 mm (Waters Inc., 186003717). Mobile Phase A consisted of Water+0.2% formic acid and Mobile Phase B consisted of acetonitrile +0.2% formic acid. Peak integration was accomplished using Gubbs GMSU software (Gubbs Inc., Alpharetta, Ga.). For each sample, peak area ratios were calculated by dividing the analyte peak area by the internal standard peak area. For each incubation, the peak area ratios of the analytes in each t0 was set to 100%, and the peak areas ratios from the 60 minute samples were converted to percentages remaining relative to the corresponding t0. Determination of sulfate metabolite formation was made qualitatively by observation of early-eluting peak in the parent ion channel which, based on historical internal data, corresponded to the O-sulfate metabolite of each parent compound.

In a further data set the target is JAK2 (Homo sapiens (Human), UniProt O60674). Put plainly: Biochemical JAK kinase assay (LanthaScreen), JAK2. The conditions noted are these: read-out: JAK2 pKi (converted). How it is done:
Recombinant GST-tagged JAK enzymes and a GFP-tagged STAT1 peptide substrate were obtained from Life Technologies. Serially diluted compounds were pre-incubated with each of the four JAK enzymes and the substrate in white 384-well microplates (Corning) at ambient temperature for 1 h. ATP was subsequently added to initiate the kinase reactions in 10 μL total volume, with 1% DMSO. […] Kinase reactions were allowed to proceed for 1 hour at ambient temperature before a 10 μL preparation of EDTA (10 mM final concentration) and Tb-anti-pSTAT1 ([…]) antibody (Life Technologies, 2 nM final concentration) in TR-FRET dilution buffer (Life Technologies) was added. The plates were allowed to incubate at ambient temperature for 1 h before being read on the EnVision reader (Perkin Elmer). Emission ratio signals (520 nm/495 nm) were recorded and utilized to calculate the percent inhibition values based on DMSO and background controls. For dose-response analysis, percent inhibition data were plotted vs. compound concentrations, and IC50 values were determined from a 4-parameter robust fit model with the Prism software (GraphPad Software). Results were expressed as pIC50 (negative logarithm of IC50) and subsequently converted to pKi (negative logarithm of dissociation constant, Ki) using the Cheng-Prusoff equation. Test compounds having a lower Ki value or higher pKi value in the four JAK assays show greater inhibition of JAK activity.

JAK2, sequence (O60674 whole entry): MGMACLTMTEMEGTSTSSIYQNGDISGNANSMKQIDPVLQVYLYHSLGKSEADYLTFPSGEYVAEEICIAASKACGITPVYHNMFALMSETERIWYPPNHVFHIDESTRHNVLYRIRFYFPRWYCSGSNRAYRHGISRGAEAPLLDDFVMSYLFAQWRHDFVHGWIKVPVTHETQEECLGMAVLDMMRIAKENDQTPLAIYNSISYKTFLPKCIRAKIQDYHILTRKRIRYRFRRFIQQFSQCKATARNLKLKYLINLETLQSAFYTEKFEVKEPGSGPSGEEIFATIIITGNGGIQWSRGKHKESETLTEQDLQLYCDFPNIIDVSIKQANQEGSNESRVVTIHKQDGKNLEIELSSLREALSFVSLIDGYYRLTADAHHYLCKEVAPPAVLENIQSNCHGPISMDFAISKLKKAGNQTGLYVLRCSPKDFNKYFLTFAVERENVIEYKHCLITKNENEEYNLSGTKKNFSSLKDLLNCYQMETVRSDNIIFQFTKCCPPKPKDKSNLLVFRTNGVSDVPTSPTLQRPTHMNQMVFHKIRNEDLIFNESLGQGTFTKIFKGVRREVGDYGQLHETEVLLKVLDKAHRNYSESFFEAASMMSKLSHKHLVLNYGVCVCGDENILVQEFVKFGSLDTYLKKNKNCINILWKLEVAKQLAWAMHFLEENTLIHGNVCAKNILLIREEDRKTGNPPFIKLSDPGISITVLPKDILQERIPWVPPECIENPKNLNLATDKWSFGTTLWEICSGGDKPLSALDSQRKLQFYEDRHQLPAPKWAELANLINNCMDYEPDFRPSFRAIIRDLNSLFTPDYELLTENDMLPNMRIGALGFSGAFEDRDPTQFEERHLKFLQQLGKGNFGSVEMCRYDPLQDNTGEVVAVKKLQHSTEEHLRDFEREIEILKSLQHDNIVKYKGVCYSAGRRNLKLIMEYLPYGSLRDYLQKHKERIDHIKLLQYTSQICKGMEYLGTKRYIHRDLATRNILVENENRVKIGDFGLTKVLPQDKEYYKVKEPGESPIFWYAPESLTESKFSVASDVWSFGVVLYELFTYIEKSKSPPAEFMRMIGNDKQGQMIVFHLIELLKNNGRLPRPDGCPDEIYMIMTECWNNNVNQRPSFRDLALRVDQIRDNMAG

Consider `CCc1cc(O)ccc1-c1ccc2c(-c3nc4c([nH]3)CN(CC)[C@H](C(=O)N3CC(N(C)C)C3)C4)n[nH]c2c1` [Compound 2, (S)-(3-(dimethylamino)azetidin-1-yl)(5-ethyl-2-(6-(2-ethyl-4-hydroxyphenyl)-1H-indazol-3-yl)-4,5,6,7-tetrahydro-3H-imidazo[4,5-c]pyridin-6-yl)methanone], for which, in “Lung S9 metabolism”, the “Compound Remaining at 60 min (%)” value amounted to 98%, the “Sulfate Appearance” value is “Yes” and the microsomal CLint at 1 µM turned out to be 0.6 µL/min/mg.

In the case of `CCc1cc(O)ccc1-c1ccc2c(-c3nc4c([nH]3)CN(C(C)C)[C@H](C(=O)N3CC(C)(N(C)C)C3)C4)n[nH]c2c1` [Compound 4, (S)-(3-(dimethylamino)-3-methylazetidin-1-yl)(2-(6-(2-ethyl-4-hydroxyphenyl)-1H-indazol-3-yl)-5-isopropyl-4,5,6,7-tetrahydro-3H-imidazo[4,5-c]pyridin-6-yl)methanone], in the data set “Lung S9 metabolism”, the “Compound Remaining at 60 min (%)” value was 100% and the “Sulfate Appearance” value was “Yes”.

On to `CCc1cc(O)ccc1-c1ccc2c(-c3nc4c([nH]3)CN(CC)[C@H](C(=O)N3CC(C)(N(C)C)C3)C4)n[nH]c2c1` [Compound 3, (S)-(3-(dimethylamino)-3-methylazetidin-1-yl)(5-ethyl-2-(6-(2-ethyl-4-hydroxyphenyl)-1H-indazol-3-yl)-4,5,6,7-tetrahydro-3H-imidazo[4,5-c]pyridin-6-yl)methanone], for which, in “Lung S9 metabolism”, the “Compound Remaining at 60 min (%)” value is 97%, the “Sulfate Appearance” value is “Yes” and the microsomal CLint at 1 µM was found to be 0.8 µL/min/mg.

As for `CCc1cc(O)c(F)cc1-c1ccc2c(-c3nc4c([nH]3)CN(C(C)C)[C@H](C(=O)N3CC(N(C)C)C3)C4)n[nH]c2c1` [Compound C-1, (S)-(3-(dimethylamino)azetidin-1-yl)(2-(6-(2-ethyl-5-fluoro-4-hydroxyphenyl)-1H-indazol-3-yl)-5-isopropyl-4,5,6,7-tetrahydro-3H-imidazo[4,5-c]pyridin-6-yl)methanone], in “Lung S9 metabolism”, the “Compound Remaining at 60 min (%)” value turned out to be 6%, the “Sulfate Appearance” value is reported as “Yes” and the microsomal CLint at 1 µM was 49 µL/min/mg.

For the compound `CCCN1Cc2[nH]c(-c3n[nH]c4cc(-c5ccc(O)cc5CC)ccc34)nc2C[C@H]1C(=O)N1CC(C)(N(C)C)C1` [Compound 6, (S)-(3-(dimethylamino)-3-methylazetidin-1-yl)(2-(6-(2-ethyl-4-hydroxyphenyl)-1H-indazol-3-yl)-5-propyl-4,5,6,7-tetrahydro-3H-imidazo[4,5-c]pyridin-6-yl)methanone], in “Lung S9 metabolism”, the “Compound Remaining at 60 min (%)” value came out at 90%, the “Sulfate Appearance” value is “Yes” and the microsomal CLint at 1 µM was 1.8 µL/min/mg. In addition, the Ki at JAK2 is 0.0316 nM.
